ChEMBL document CHEMBL1153480, “Study on the potential anti-cancer activity of phosphonium and ammonium-based ionic liquids” (2009)

Columns and labels:
Assay type in all cases: functional
OVCAR-3 = assay: cells; conditions: Homo sapiens
Description: Growth inhibition of human OVCAR-3 cells assessed as cell growth at 10 uM by SRB assay

IGROV-1 [1] = assay: cells; conditions: Homo sapiens
Description: Growth inhibition of human IGROV1 cells assessed as drug level required for 50% reduction in net protein increase by SRB assay relative to control

HCC 2998 [2] = assay: cells; conditions: Homo sapiens
Description: Growth inhibition of human HCC2998 cells assessed as drug level required for 50% reduction in net protein increase by SRB assay relative to control

SNB-19 = assay: cells; conditions: Homo sapiens
Description: Growth inhibition of human SNB19 cells assessed as drug level required for 50% reduction in net protein increase by SRB assay relative to control

OVCAR-4 [3] = assay: Cytotoxicity against human OVCAR4 cells by SRB assay; conditions: read-out: LC50 (the source's name)
MOLT-4 [4] = assay: cells; conditions: Homo sapiens
Description: Growth inhibition of human MOLT4 cells assessed as cell growth at 10 uM by SRB assay

PC-3 [5] = assay: cells; conditions: Homo sapiens
Description: Growth inhibition of human PC3 cells assessed as cell growth at 10 uM by SRB assay

CCRF-CEM [6] = assay: cells; conditions: Homo sapiens
Description: Growth inhibition of human CCRF-CEM cells assessed as drug level required for 50% reduction in net protein increase by SRB assay relative to control

KM12 = assay: Cytotoxicity against human KM12 cells by SRB assay; conditions: read-out: LC50 (the source's name)
MDA-MB-468 [7] = assay: cells; conditions: Homo sapiens
Description: Growth inhibition of human MDA-MB-468 cells assessed as cell growth at 10 uM by SRB assay

T47D = assay: Cytotoxicity against human T47D cells by SRB assay; conditions: read-out: LC50 (the source's name)
SF-295 = assay: cells; conditions: Homo sapiens
Description: Growth inhibition of human SF295 cells assessed as drug level required for 50% reduction in net protein increase by SRB assay relative to control

OVCAR-4 [8] = assay: cells; conditions: Homo sapiens
Description: Growth inhibition of human OVCAR4 cells assessed as drug level required for 50% reduction in net protein increase by SRB assay relative to control

SR = assay: Cytotoxicity against human SR cells by SRB assay; conditions: read-out: LC50 (the source's name)
HOP-92 = assay: cells; conditions: Homo sapiens
Description: Growth inhibition of human HOP92 cells assessed as drug level required for 50% reduction in net protein increase by SRB assay relative to control

HCC 2998 [9] = assay: Cytotoxicity against human HCC2998 cells by SRB assay; conditions: read-out: LC50 (the source's name)
DU-145 [10] = assay: cells; conditions: Homo sapiens
Description: Growth inhibition of human DU145 cells assessed as drug level required for 50% reduction in net protein increase by SRB assay relative to control

CCRF-CEM [11] = assay: cells; conditions: Homo sapiens; remark: listed apart in the source
Description: Growth inhibition of human CCRF-CEM cells assessed as cell growth at 10 uM by SRB assay

SK-MEL-2 = assay: cells; conditions: Homo sapiens
Description: Growth inhibition of human SK-MEL-2 cells assessed as cell growth at 10 uM by SRB assay

MCF7 [12] = assay: cells; conditions: Homo sapiens
Description: Growth inhibition of human MCF7 cells assessed as cell growth at 10 uM by SRB assay

M14 [13] = assay: cells; conditions: Homo sapiens
Description: Growth inhibition of human M14 cells assessed as cell growth at 10 uM by SRB assay

HCC 2998 [14] = assay: cells; conditions: Homo sapiens; remark: listed apart in the source
Description: Growth inhibition of human HCC2998 cells assessed as cell growth at 10 uM by SRB assay

Malme-3M [15] = assay: cells; conditions: Homo sapiens
Description: Growth inhibition of human MALME-3M cells assessed as cell growth at 10 uM by SRB assay

A549 [16] = assay: cells; conditions: Homo sapiens
Description: Growth inhibition of human A549 cells assessed as cell growth at 10 uM by SRB assay

786-0 [17] = assay: cells; conditions: Homo sapiens
Description: Growth inhibition of human 786-0 cells assessed as cell growth at 10 uM by SRB assay

DU-145 [18] = assay: Cytotoxicity against human DU145 cells by SRB assay; conditions: read-out: LC50 (the source's name)
MDA-MB-468 [19] = assay: cells; conditions: Homo sapiens; remark: listed apart in the source
Description: Growth inhibition of human MDA-MB-468 cells assessed as drug level required for 50% reduction in net protein increase by SRB assay relative to control

ACHN = assay: cells; conditions: Homo sapiens
Description: Growth inhibition of human ACHN cells assessed as drug level required for 50% reduction in net protein increase by SRB assay relative to control

SK-OV-3 [20] = assay: cells; conditions: Homo sapiens
Description: Growth inhibition of human SKOV3 cells assessed as cell growth at 10 uM by SRB assay

SNB-75 = assay: cells; conditions: Homo sapiens
Description: Growth inhibition of human SNB75 cells assessed as drug level required for 50% reduction in net protein increase by SRB assay relative to control

OVCAR-8 [21] = assay: Cytotoxicity against human OVCAR8 cells by SRB assay; conditions: read-out: LC50 (the source's name)
cells [22] = conditions: Homo sapiens, Hs-578T
Description: Growth inhibition of human Hs 578T cells assessed as cell growth at 10 uM by SRB assay

A498 = assay: cells; conditions: Homo sapiens
Description: Growth inhibition of human A498 cells assessed as cell growth at 10 uM by SRB assay

UACC-257 [23] = assay: cells; conditions: Homo sapiens
Description: Growth inhibition of human UACC257 cells assessed as drug level required for 50% reduction in net protein increase by SRB assay relative to control

U-251 = assay: cells; conditions: Homo sapiens
Description: Growth inhibition of human U251 cells assessed as drug level required for 50% reduction in net protein increase by SRB assay relative to control

MDA-MB-435 = assay: cells; conditions: Homo sapiens
Description: Growth inhibition of human MDA-MB-435 cells assessed as drug level required for 50% reduction in net protein increase by SRB assay relative to control

HOP-62 = assay: cells; conditions: Homo sapiens
Description: Growth inhibition of human HOP62 cells assessed as drug level required for 50% reduction in net protein increase by SRB assay relative to control

NCI-H460 = assay: cells; conditions: Homo sapiens
Description: Growth inhibition of human NCI-H460 cells assessed as cell growth at 10 uM by SRB assay

NCI-H23 = assay: cells; conditions: Homo sapiens
Description: Growth inhibition of human NCI-H23 cells assessed as cell growth at 10 uM by SRB assay

786-0 [24] = assay: cells; conditions: Homo sapiens, read-out: LC50 (the source's name)
Description: Cytotoxicity against human 786-0 cells by SRB assay

NCI-H522 [25] = assay: Cytotoxicity against human NCI-H522 cells by SRB assay; conditions: read-out: LC50 (the source's name)
SN12C = assay: cells; conditions: Homo sapiens
Description: Growth inhibition of human SN12C cells assessed as drug level required for 50% reduction in net protein increase by SRB assay relative to control

MCF7 [26] = assay: Cytotoxicity against human MCF7 cells by SRB assay; conditions: read-out: LC50 (the source's name)
SW-620 = assay: Cytotoxicity against human SW620 cells by SRB assay; conditions: read-out: LC50 (the source's name)
Malme-3M [27] = assay: cells; conditions: Homo sapiens; remark: listed apart in the source
Description: Growth inhibition of human MALME-3M cells assessed as drug level required for 50% reduction in net protein increase by SRB assay relative to control

EKVX = assay: cells; conditions: Homo sapiens
Description: Growth inhibition of human EKVX cells assessed as drug level required for 50% reduction in net protein increase by SRB assay relative to control

BT-549 = assay: cells; conditions: Homo sapiens
Description: Growth inhibition of human BT549 cells assessed as drug level required for 50% reduction in net protein increase by SRB assay relative to control

COLO 205 [28] = assay: cells; conditions: Homo sapiens
Description: Growth inhibition of human COLO205 cells assessed as drug level required for 50% reduction in net protein increase by SRB assay relative to control

786-0 [29] = assay: cells; conditions: Homo sapiens; remark: listed apart in the source
Description: Growth inhibition of human 786-0 cells assessed as drug level required for 50% reduction in net protein increase by SRB assay relative to control

IGROV-1 [30] = assay: Cytotoxicity against human IGROV1 cells by SRB assay; conditions: read-out: LC50 (the source's name)
SF-539 = assay: cells; conditions: Homo sapiens
Description: Growth inhibition of human SF539 cells assessed as cell growth at 10 uM by SRB assay

LOX IMVI = assay: cells; conditions: Homo sapiens
Description: Growth inhibition of human LOXIMVI cells assessed as drug level required for 50% reduction in net protein increase by SRB assay relative to control

cells [31] = conditions: Homo sapiens, Hs-578T; read-out: LC50 (the source's name)
Description: Cytotoxicity against human Hs 578T cells by SRB assay

SK-OV-3 [32] = assay: Cytotoxicity against human SKOV3 cells by SRB assay; conditions: read-out: LC50 (the source's name)
UACC-62 = assay: cells; conditions: Homo sapiens
Description: Growth inhibition of human UACC62 cells assessed as cell growth at 10 uM by SRB assay

COLO 205 [33] = assay: cells; conditions: Homo sapiens; remark: listed apart in the source
Description: Growth inhibition of human COLO205 cells assessed as cell growth at 10 uM by SRB assay

A549 [34] = assay: cells; conditions: Homo sapiens; remark: listed apart in the source
Description: Growth inhibition of human A549 cells assessed as drug level required for 50% reduction in net protein increase by SRB assay relative to control

MOLT-4 [35] = assay: Cytotoxicity against human MOLT4 cells by SRB assay; conditions: read-out: LC50 (the source's name)
MDA-MB-468 [36] = assay: Cytotoxicity against human MDA-MB-468 cells by SRB assay; conditions: read-out: LC50 (the source's name)
Malme-3M [37] = assay: Cytotoxicity against human MALME-3M cells by SRB assay; conditions: read-out: LC50 (the source's name)
RXF 393 = assay: Cytotoxicity against human RFX393 cells by SRB assay; conditions: read-out: LC50 (the source's name)
RPMI-8226 = assay: cells; conditions: Homo sapiens
Description: Growth inhibition of human RPMI8226 cells assessed as cell growth at 10 uM by SRB assay

MDA-MB-231 = assay: cells; conditions: Homo sapiens
Description: Growth inhibition of human MDA-MB-231 cells assessed as cell growth at 10 uM by SRB assay

M14 [38] = assay: Cytotoxicity against human M14 cells by SRB assay; conditions: read-out: LC50 (the source's name)
OVCAR-5 = assay: cells; conditions: Homo sapiens
Description: Growth inhibition of human OVCAR5 cells assessed as drug level required for 50% reduction in net protein increase by SRB assay relative to control

OVCAR-8 [39] = assay: cells; conditions: Homo sapiens
Description: Growth inhibition of human OVCAR8 cells assessed as drug level required for 50% reduction in net protein increase by SRB assay relative to control

SK-MEL-5 = assay: cells; conditions: Homo sapiens
Description: Growth inhibition of human SK-MEL-5 cells assessed as cell growth at 10 uM by SRB assay

PC-3 [40] = assay: Cytotoxicity against human PC3 cells by SRB assay; conditions: read-out: LC50 (the source's name)
K562 = assay: cells; conditions: Homo sapiens
Description: Growth inhibition of human K562 cells assessed as cell growth at 10 uM by SRB assay

UACC-257 [41] = assay: cells; conditions: Homo sapiens; remark: listed apart in the source
Description: Growth inhibition of human UACC257 cells assessed as cell growth at 10 uM by SRB assay

NCI-H522 [42] = assay: cells; conditions: Homo sapiens
Description: Growth inhibition of human NCI-H522 cells assessed as drug level required for 50% reduction in net protein increase by SRB assay relative to control

Molecule CCCCCCCCCCCCCCCCCCPCCCCCCCCCCCCCC.O=S(=O)(NS(=O)(=O)C(F)(F)F)C(F)(F)F (stereo unspecified) has a growth at 10 µM (OVCAR-3) of -100%, a GI50 (IGROV-1 [1]) of 71 nM and a GI50 (HCC 2998 [2]) of 240 nM. It also gave a GI50 (SNB-19) of 69 nM, a CC50 (OVCAR-4 [3]) of over 100000 nM and a growth at 10 µM (MOLT-4 [4]) of 51.6%. It also gave a growth at 10 µM (PC-3 [5]) of -78.1%, a GI50 (CCRF-CEM [6]) of 26 nM and a CC50 (KM12) of over 100000 nM. The growth at 10 µM (MDA-MB-468 [7]) was -88.3%, the CC50 (T47D) was over 100000 nM and the GI50 (SF-295) was 205 nM. It also gave a GI50 (OVCAR-4 [8]) of 73 nM, a CC50 (SR) of 8080 nM and a GI50 (HOP-92) of 30 nM. It also gave a CC50 (HCC 2998 [9]) of over 100000 nM, a GI50 (DU-145 [10]) of 156 nM and a growth at 10 µM (CCRF-CEM [11]) of 26.4%. The growth at 10 µM (SK-MEL-2) was -3.57%, the growth at 10 µM (MCF7 [12]) was -51.8% and the growth at 10 µM (M14 [13]) was -83.9%. For the same molecule, the growth at 10 µM (HCC 2998 [14]) was -24.4%, the growth at 10 µM (Malme-3M [15]) was -36.5% and the growth at 10 µM (A549 [16]) was -35%. The growth at 10 µM (786-0 [17]) was -65.8%, the CC50 (DU-145 [18]) was over 100000 nM and the GI50 (MDA-MB-468 [19]) was 36 nM. The GI50 (ACHN) was 260 nM, the growth at 10 µM (SK-OV-3 [20]) was -3.34% and the GI50 (SNB-75) was 76 nM. The CC50 (OVCAR-8 [21]) was over 100000 nM, the growth at 10 µM (cells [22]) was -35.8% and the growth at 10 µM (A498) was -48.3%. It also gave a GI50 (UACC-257 [23]) of 103 nM, a GI50 (U-251) of 41 nM and a GI50 (MDA-MB-435) of 45 nM. For the same molecule, the GI50 (HOP-62) was 435 nM, the growth at 10 µM (NCI-H460) was -59.4% and the growth at 10 µM (NCI-H23) was -39.3%. It also gave a CC50 (786-0 [24]) of over 100000 nM, a CC50 (NCI-H522 [25]) of over 100000 nM and a GI50 (SN12C) of 42 nM. It also gave a CC50 (MCF7 [26]) of over 100000 nM, a CC50 (SW-620) of over 100000 nM and a GI50 (Malme-3M [27]) of 29 nM. For the same molecule, the GI50 (EKVX) was 123 nM, the GI50 (BT-549) was 66 nM and the GI50 (COLO 205 [28]) was 182 nM. The GI50 (786-0 [29]) was 253 nM, the CC50 (IGROV-1 [30]) was over 100000 nM and the growth at 10 µM (SF-539) was 5.67%. It also gave a GI50 (LOX IMVI) of 58 nM, a CC50 (cells [31]) of over 100000 nM and a CC50 (SK-OV-3 [32]) of over 100000 nM. The growth at 10 µM (UACC-62) was -28.1%, the growth at 10 µM (COLO 205 [33]) was -65.4% and the GI50 (A549 [34]) was 292 nM. For the same molecule, the CC50 (MOLT-4 [35]) was over 100000 nM, the CC50 (MDA-MB-468 [36]) was 2560 nM and the CC50 (Malme-3M [37]) was 5380 nM. For the same molecule, the CC50 (RXF 393) was over 100000 nM, the growth at 10 µM (RPMI-8226) was 59.4% and the growth at 10 µM (MDA-MB-231) was -38.3%. The CC50 (M14 [38]) was over 100000 nM, the GI50 (OVCAR-5) was 318 nM and the GI50 (OVCAR-8 [39]) was 86 nM. It also gave a growth at 10 µM (SK-MEL-5) of -100%, a CC50 (PC-3 [40]) of 5900 nM and a growth at 10 µM (K562) of 39%. The growth at 10 µM (UACC-257 [41]) was -34.6% and the GI50 (NCI-H522 [42]) was 105 nM.
